Where two headings read alike, the source gives them in different places.
Key:
[1] = system: labial or skin HSV lesions; settings: episodic topical application, cited from earlier work
HSV1 17+ strain = settings: Houston et al (2017) Table 2; cited from earlier work
[2] = system: acyclovir resistant HSV2 strain 132349 ACV-res; test: Acyclovir resistant HSV2 replication assay in N-Tert keratinocytes; type: cell-based
Protocol: (§1) Cell Culture; Telomerase immortalised N-Tert human foreskin Keratinocyes were maintained in standard T-75 tissue culture flasks (Corning, USA) in 25 ml of Keratinocyte serum-free medium (KSFM) supplemented with L-glutamine, 0.2 ng/ml epidermal growth factors (EGF) and 25 μg/mL bovine pituitary extract (BPE) (Gibco, Invitrogen, UK). These were maintained at 37° C. in a humidified atmosphere of 5% CO2 and the medium was changed every 2 days as required. For routine sub-culture the medium was aspirated, cells washed with PBS (Gibco-Invitrogen, UK) and 2 ml of Cell Culture Grade Trypsin 0.05% solution with EDTA (Gibco-Invitrogen, UK) added to each flask which was incubated at 37° C./5% CO2 for 10 minutes. A 10 ml aliquot of KSFM plus 10% foetal bovine serum (FBS) (Gibco-Invitrogen, UK) was then added and the cells centrifuged at 6000 g for 6 minutes. The medium was aspirated and cells washed with 10 mls of PBS (Gibco Invitrogen, UK) followed by re-suspension in 10 mls of fresh KSFM and final a cell count carried out. HSV1 & 2 Replication Assays; T25 flasks (Corning, USA) were each seeded with 600,000 N-Tert cells in serum-free KSFM plus supplements and incubated at 37° C./5% CO2 until confluent (Approximately 72 hours). The medium was then aspirated and cells infected with either 25 μl aliquot of HSV2 strain HG52, 1 μl of HSV1 strain 17+ or a 5 μl aliquot of the acyclovir resistant HSV2 strain 132349 ACV-res (Public Health England, Porton Down, UK) in 0.5 ml of serum-free KSFM plus supplements for a period of 2 hours at 37° C./5% CO2. The volume of each HSV strain stock used was empirically determined as the amount required to produce pronounced cytopathic changes in infected control flasks over the time course of the experiment. A 9.5 ml aliquot of KSFM plus supplements was then added to each flask and cells infected with the HG52 or 17+ strains incubated overnight whereas cell infected with the 132349 ACV-res strain were incubated for 5 hours at 37° C./5% CO2. […] Where mixed APIs were used, concentrations were calculated as w/w ratios. […]

HSV-2 132349 ACV-res = settings: Houston et al (2017) Table 2; cited from earlier work
herpesvirus = settings: Gantt et al. (2011) Table 1; cited from earlier work
HSV2 strain HG52 = test: HSV2 replication assay in N-Tert keratinocytes (anti-HSV immunostaining); type: cell-based; settings: for effect against HSV2 replication: FIG. 2B
Protocol: (§2) Cell Culture; Telomerase immortalised N-Tert human foreskin Keratinocyes were maintained in standard T-75 tissue culture flasks (Corning, USA) in 25 ml of Keratinocyte serum-free medium (KSFM) supplemented with L-glutamine, 0.2 ng/ml epidermal growth factors (EGF) and 25 μg/mL bovine pituitary extract (BPE) (Gibco, Invitrogen, UK). These were maintained at 37° C. in a humidified atmosphere of 5% CO2 and the medium was changed every 2 days as required. For routine sub-culture the medium was aspirated, cells washed with PBS (Gibco-Invitrogen, UK) and 2 ml of Cell Culture Grade Trypsin 0.05% solution with EDTA (Gibco-Invitrogen, UK) added to each flask which was incubated at 37° C./5% CO2 for 10 minutes. A 10 ml aliquot of KSFM plus 10% foetal bovine serum (FBS) (Gibco-Invitrogen, UK) was then added and the cells centrifuged at 6000 g for 6 minutes. The medium was aspirated and cells washed with 10 mls of PBS (Gibco Invitrogen, UK) followed by re-suspension in 10 mls of fresh KSFM and final a cell count carried out. HSV1 & 2 Replication Assays; T25 flasks (Corning, USA) were each seeded with 600,000 N-Tert cells in serum-free KSFM plus supplements and incubated at 37° C./5% CO2 until confluent (Approximately 72 hours). The medium was then aspirated and cells infected with either 25 μl aliquot of HSV2 strain HG52, 1 μl of HSV1 strain 17+ or a 5 μl aliquot of the acyclovir resistant HSV2 strain 132349 ACV-res (Public Health England, Porton Down, UK) in 0.5 ml of serum-free KSFM plus supplements for a period of 2 hours at 37° C./5% CO2. The volume of each HSV strain stock used was empirically determined as the amount required to produce pronounced cytopathic changes in infected control flasks over the time course of the experiment. A 9.5 ml aliquot of KSFM plus supplements was then added to each flask and cells infected with the HG52 or 17+ strains incubated overnight whereas cell infected with the 132349 ACV-res strain were incubated for 5 hours at 37° C./5% CO2. Stock solutions of each active pharmaceutical ingredient (API) were freshly prepared every week from dry powder (Douglas Pharna, NZ) dissolved volumetrically in DMSO at 100 mM and stored at −20° C. Appropriate final dilutions of these API stocks solutions were made in KSFM plus supplements such that the same volume of DMSO (2 μl) was added to each infected flask. Where mixed APIs were used, concentrations were calculated as w/w ratios. API treated HSV2 HG52 infected cells were then incubated for 48 hours, HSV1 17+ infected cells were incubated for 8 hours and HSV-2 132349 ACV-res infected cells were incubated for 12 hours prior to harvesting for immunostaining. A concentration of 5 μM Acyclovir (VWR International, UK) was also added as a comparator to flasks infected with HSV-2 132349 ACV-res in order to verify the acyclovir resistant nature of the strain. […] Harvesting & Immunostaining; Growth medium was decanted from each flask and placed into 15 ml universal tubes (Corning, USA) and the cells rinsed with 1 ml of 1×PBS which was pooled with the growth medium. A 1 ml aliquot of NB Cell Culture Grade Trypsin 0.05% solution with EDTA was added to each T-25 flask and cells incubated at 37° C./5% CO2 for 10 minutes. A 1 ml aliquot of FBS was added to the decanted growth medium plus PBS from the previous step and 2 ml of this was then added to each flask to inactivate the trypsin. The trypsinised cells were then pooled with the decanted growth medium and an aliquot taken for analysis of cell viability using Via-1 cassette NC3000 cell cytometer assays (CheoMetec A/S, Denmark). The remaining cells were centrifuged at 6000 g for 5 minutes, the medium aspirated and the cells re-suspended and washed with 10 ml of PBS followed by re-centrifugation. Finally the cells were re-suspended in 70% of ice-cold ethanol, stored overnight at 4° C. and a volume containing 60,000 cells was aliquoted into 1.5 ml Eppendorf tubes and centrifuged for 5 minutes at 5000 rpm. […]

HSV1 strain 17+ = test: HSV1 replication assay in N-Tert keratinocytes (anti-HSV immunostaining); type: cell-based; settings: for effects on HSV1 replication: FIG. 4B; for effect on HSV1 replication: pre-treatment virus incubation reduced by 2 hours, FIG. 5B
Protocol: as §2, with “trypsin.” for “trypsin. The trypsinised cells were then pooled with the decanted growth medium and an aliquot taken for analysis of cell viability using Via-1 cassette NC3000 cell cytometer assays (CheoMetec A/S, Denmark). The remaining cells were centrifuged at 6000 g for 5 minutes, the medium aspirated and the cells re-suspended and washed with 10 ml of PBS followed by re-centrifugation. Finally the cells were re-suspended in 70% of ice-cold ethanol, stored overnight at 4° C. and a volume containing 60,000 cells was aliquoted into 1.5 ml Eppendorf tubes and centrifuged for 5 minutes at 5000 rpm.”

[3] = system: uninfected N-Tert keratinocytes; test: Cytotoxicity assay (Via-1 cassette viability); type: cell-based; settings: human, 48 h
Protocol: as §1

[4] = cited from earlier work

SMILES: Nc1nc2c(ncn2COCCO)c(=O)[nH]1 [Acyclovir, acyclovir]
- improvement of healing times ([1]; 3-5% acyclovir cream): approximately 10%
- concentration that proved very effective (HSV1 17+ strain): < 0.8 µM
- number of virus positive cells ([2]; Acyclovir, FIG. 6B): did not, as expected reduce the number of virus positive cells
- concentration required for toxicity against this strain (HSV-2 132349 ACV-res): > 100 µM

SMILES: Cc1c(O)cccc1C(=O)N[C@@H](CSc1ccccc1)[C@H](O)CN1C[C@H]2CCCC[C@H]2C[C@H]1C(=O)NC(C)(C)C [nelfinavir]
- effect on herpesvirus replication (herpesvirus): inhibitory effect on viruses
- effect against HSV2 replication (HSV2 strain HG52; 2 μM): less effective against HSV2 replication than 10 μM nelfinavir
- effect against HSV2 replication (HSV2 strain HG52; 5 μM): less effective against HSV2 replication than 10 μM nelfinavir
- effect against HSV2 replication (HSV2 strain HG52; 10 μM): as effective as 20 μM 12:1 Lop/Rit
- effects on HSV1 replication (HSV1 strain 17+; 2 μM): very modest effects
- effect on HSV1 replication (HSV1 strain 17+; 2 μM): no discernible effect
- effects on HSV1 replication (HSV1 strain 17+; 10 μM): very modest effects
- effect on HSV1 replication (HSV1 strain 17+; 10 μM): no discernible effect
- concentrations with significant toxic effects on eukaryotic cells [3]: above 2 μM
- cell viability ([3]; 10 μM): < 60%
- cell viability ([3]; 20 μM): about 40%

SMILES: Cc1cccc(C)c1OCC(=O)N[C@@H](Cc1ccccc1)[C@@H](O)C[C@H](Cc1ccccc1)NC(=O)[C@H](C(C)C)N1CCCNC1=O (relative stereo) [lopinavir, [1S-[1R*(R*), 3R*, 4R*]]-N-[4-[(2,6-dimethylphenoxy0acetyl]amino]-3-hydroxy-5-phenyl-1-(phenylmethyl)pentyl]tetrahydro-alpha-(1-methylethyl)-2-oxo-1(2H)-pyrimidineacetamide]
- effect on herpesvirus replication (herpesvirus): ineffective
- effect against HSV2 replication compared with nelfinavir (HSV2 strain HG52; 20 μM): more effective against HSV2 replication than either 2 or 5 μM nelfinavir
- HSV2 positive cells (anti-HSV antibody immunostaining images) (HSV2 strain HG52; 20 μM, 48 hours, FIG. 1B): Very few HSV2 positive cells
- cytopathic effects of HSV2 infection (phase contrast morphology) (HSV2 strain HG52; 20 μM, 48 hours, N-Tert keratinocytes, FIG. 1A): virtually no cytopathic effects
- percentage of virus positive cells (quantitative analysis of immune staining) (HSV2 strain HG52; 20 μM, FIG. 1C): marked reduction
- effect on HSV1 replication (HSV1 strain 17+; 20 μM): by far the greatest activity
- number of virus positive cells ([2]; 10 μM, FIG. 6B (DMSO control 50%)): 10%
- number of virus positive cells ([2]; 20 μM, FIG. 6B (DMSO control 50%)): 5%
- solubility in water [4]: virtually insoluble in water

SMILES: CC(C)c1nc(CN(C)C(=O)N[C@H](C(=O)N[C@@H](Cc2ccccc2)C[C@H](O)[C@H](Cc2ccccc2)NC(=O)OCc2cncs2)C(C)C)cs1 (relative stereo) [ritonavir, 10-Hydroxy-2-methyl-5-(1-methylethyl)-1-[2-(1-methylethyl)-4-thiazolyl]-3,6-dioxo-8,11bis(phenylmethyl)-2,4,7,12-tetraazatridecan-13-oic acid, 5-thiazolylmethylester, [5S-(5R*,8R*,10R8,11R*)]]
- effect on herpesvirus replication (herpesvirus): ineffective

SMILES: Nc1nc2c(ncn2CCC(CO)CO)c(=O)[nH]1 [penciclovir]
- improvement of healing times ([1]; 1% penciclovir cream): approximately 10%

— patent US12414994B2, “Compositions comprising lopinavir and treatment of conditions” (DOUGLAS PHARMACEUTICALS LIMITED, priority 2019, dated 2025)
